Results published in ChEMBL document CHEMBL1201862, “PubChem BioAssay data set” (2004).
Calls of active or inactive are those of the source.

Legend:
[1] = target: T1, Fatty acid synthase (Homo sapiens, UniProt P49327); test: inhibition of human FAS-TE enzyme activity – biochemical, endpoint fluorescence intensity, uHTS hits, dose response (AID 624327); format: functional;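 further: fluorescence from hydrolysis of an O-methyl fluorescein acyl ester substrate by the enzyme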
[2] = test system: Streptococcus; test: GAS UMAA2166 growth inhibition – luminescence, BacTiterGlo, counter-screen for streptokinase expression inhibitor project, dose response (AID 1915); format: functional, organism-based;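 further: potency for reduction of bacterial viability or growth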
[3] = loss of viability in HepG2 cells – cell-based, CellTiter-Glo, cherry-picked, cytotoxicity control for Shn3 inhibitor project, dose response (AID 624134); format: functional
[4] = NIH3T3 cell viability loss – ATP luminescence, mouse fibroblasts, counter-screen, dose response (AID 2010); format: functional, cell-based;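 further: cells exposed to compound for about 90 hours before reading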
[5] = reduction of Shn3 3'UTR-driven luciferase in osteoblasts – cell-based, Clone20 osteoblasts, firefly luciferase, cherry-picked, dose response (AID 624132); format: functional;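 further: firefly luciferase luminescence from reporter carrying the Shn3 3'UTR in osteoblasts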
[6] = test system: Streptococcus sp. 'group A'; test: Streptococcus pyogenes SK(-)GAS viability under kanamycin – luminescence, BacTiterGlo, confirmation, counter-screen for streptokinase expression inhibitor project, dose response (AID 1900); format: functional, organism-based
[7] = target: T2, Streptokinase A (Streptococcus pyogenes serotype M1, UniProt P10520); test: viability-normalized secreted streptokinase activity reduction – plasminogen activation absorbance, OD405, dose response (AID 1914); format: functional, Streptococcus pyogenes M1 GAS;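 further: secreted streptokinase activity via plasminogen activation per viability signal from cell pellet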
T2 sequence (P10520 whole entry): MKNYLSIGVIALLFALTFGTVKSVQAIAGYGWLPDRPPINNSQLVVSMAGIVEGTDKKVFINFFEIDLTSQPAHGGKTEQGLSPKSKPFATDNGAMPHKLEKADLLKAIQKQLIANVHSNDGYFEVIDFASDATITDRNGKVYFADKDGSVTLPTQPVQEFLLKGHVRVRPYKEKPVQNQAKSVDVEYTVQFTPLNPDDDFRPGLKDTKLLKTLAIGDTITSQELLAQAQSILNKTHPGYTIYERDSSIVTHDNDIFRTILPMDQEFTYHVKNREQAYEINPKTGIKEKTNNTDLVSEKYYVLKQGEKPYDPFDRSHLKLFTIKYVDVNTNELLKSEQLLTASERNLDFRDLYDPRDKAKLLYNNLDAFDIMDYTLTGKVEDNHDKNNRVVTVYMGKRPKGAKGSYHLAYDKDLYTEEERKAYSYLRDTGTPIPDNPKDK

[8] = target: T1, Fatty acid synthase; test: inhibition of human FAS-TE enzyme activity – biochemical, kinetic fluorescence intensity, dose response (AID 624326); format: functional;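 further: rate of fluorescence rise from hydrolysis of a fluorogenic O-methyl fluorescein ester substrate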
[9] = target: T3, Type-1 angiotensin II receptor (Homo sapiens, UniProt P30556); test: antagonism of angiotensin II type 1 receptor – cell-based, uHTS hits, selectivity assay for APJ receptor antagonist project, dose response (AID 463214); format: functional;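 further: antagonist potency against angiotensin II stimulated AT1 response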
T3 sequence (P30556 whole entry): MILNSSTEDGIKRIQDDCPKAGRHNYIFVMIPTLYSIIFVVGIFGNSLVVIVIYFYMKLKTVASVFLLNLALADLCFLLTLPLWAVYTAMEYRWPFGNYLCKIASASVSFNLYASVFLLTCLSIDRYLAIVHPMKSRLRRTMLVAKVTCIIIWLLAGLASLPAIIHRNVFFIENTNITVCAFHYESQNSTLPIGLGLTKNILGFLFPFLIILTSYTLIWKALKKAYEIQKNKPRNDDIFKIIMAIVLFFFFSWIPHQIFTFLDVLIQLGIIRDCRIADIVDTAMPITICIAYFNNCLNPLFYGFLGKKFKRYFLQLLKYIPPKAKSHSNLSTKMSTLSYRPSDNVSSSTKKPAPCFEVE

[10] = target: Genome polyprotein (dengue virus type 2, UniProt P29990); test: flavivirus cap methylation enzyme inhibition – biochemical, confirmation dose response, primary screen (AID 588689); format: functional
[11] = target: Glucose-6-phosphate 1-dehydrogenase (Homo sapiens, UniProt P11413); test: inhibition of Homo sapiens G6PD, dose series – biochemical, fluorescence, selectivity assay for P. falciparum G6PD inhibitor project, dose response (AID 504792); format: functional
[12] = Trypanosoma cruzi growth suppression in host cells – NIH3T3 host cells, beta-gal luminescence, confirmation (AID 2044); format: functional, cell-based;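 further: intracellular parasites grown in NIH/3T3 mouse fibroblasts as host cells; luminescent beta-galactosidase reporter signal from transgenic T. cruzi replicating inside host cells; inhibitors lower the luminescence signal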
[13] = test system: Vero; test: viability of Vero cells under compound – cytotoxicity control for flavivirus capping enzyme inhibitors (AID 588742); format: functional; details: Chlorocebus sabaeus
[14] = non-specific 3'UTR reporter inhibition in Clone20-Shn3RL – cell-based, Renilla luciferase, cherry-picked, counter-screen for Shn3 inhibitor project, dose response (AID 624133); format: functional
[15] = target: Beta-galactosidase (Escherichia coli, UniProt Q8VNN2); test: PubChem AID 485352; format: functional
[16] = test system: BJ; test: BJ-TERT fibroblast viability loss – cell-based, RAS-independent, luminescence, dose response (AID 1933); format: functional; details: Homo sapiens
[17] = test system: Vero; test: cells; format: functional; details: Chlorocebus sabaeus
[18] = target: T4, Corticotropin-releasing factor receptor 2/Corticotropin-releasing factor-binding protein (Homo sapiens, UniProt P24387+Q13324); test: Dose Response confirmation of uHTS hits for small molecule antagonists of the CRF-binding protein and CRF-R2 receptor complex.; format: functional; details: read-out: IC50_Mean
T4 sequence (Q13324 whole entry): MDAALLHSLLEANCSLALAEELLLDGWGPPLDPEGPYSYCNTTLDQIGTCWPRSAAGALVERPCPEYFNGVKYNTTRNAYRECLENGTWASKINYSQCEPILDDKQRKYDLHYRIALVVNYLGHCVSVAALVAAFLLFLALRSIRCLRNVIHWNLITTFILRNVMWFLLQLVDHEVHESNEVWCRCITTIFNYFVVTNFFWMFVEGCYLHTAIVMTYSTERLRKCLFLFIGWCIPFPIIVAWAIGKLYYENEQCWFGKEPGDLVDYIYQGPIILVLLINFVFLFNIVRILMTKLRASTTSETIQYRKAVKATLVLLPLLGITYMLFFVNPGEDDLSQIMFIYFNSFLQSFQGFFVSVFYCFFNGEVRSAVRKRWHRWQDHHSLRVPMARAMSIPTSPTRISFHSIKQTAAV
T4 sequence (P24387 whole entry): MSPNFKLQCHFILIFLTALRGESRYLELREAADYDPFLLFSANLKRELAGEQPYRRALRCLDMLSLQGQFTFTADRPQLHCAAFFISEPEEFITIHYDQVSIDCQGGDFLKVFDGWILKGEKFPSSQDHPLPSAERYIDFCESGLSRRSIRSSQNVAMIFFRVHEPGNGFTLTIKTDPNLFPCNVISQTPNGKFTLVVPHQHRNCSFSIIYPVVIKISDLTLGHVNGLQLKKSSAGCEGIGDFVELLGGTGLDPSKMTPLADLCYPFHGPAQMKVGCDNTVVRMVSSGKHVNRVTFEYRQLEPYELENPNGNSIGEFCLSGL

[19] = test system: Vero; test: cells; format: functional, cell-based; details: Chlorocebus sabaeus
[20] = test system: BJ; test: cells; format: functional, cell-based; details: Homo sapiens
[21] = test system: BJ; test: BJ-TERT-LT-ST fibroblast viability loss – cell-based, RAS-independent, luminescence, dose response (AID 1935); format: functional; details: Homo sapiens;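 further: BJ fibroblasts immortalized with TERT plus LT and ST oncogenes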
[22] = target: T4, Corticotropin-releasing factor receptor 2/Corticotropin-releasing factor-binding protein; test: activators of CRF receptor 2 with binding protein – uHTS hits, confirmation (AID 602473); format: functional; details: read-out: EC50_Mean
[23] = test system: Vero; test: mammalian cell viability reduction – secondary assay, cytotoxicity control for West Nile virus antiviral project, dose response (AID 1650); format: functional; details: Chlorocebus sabaeus
[24] = DRD fibroblast viability loss – cell-based, non-viral oncogenic, luminescence, dose response (AID 1934); format: functional; details: Homo sapiens
[25] = decrease of insulin promoter-GFP reporter – imaging, high-content screening, mouse beta cells (AID 1628); format: functional; details: MIN6
[26] = MIN6 cell viability loss – mouse insulinoma, cytotoxicity control, dose response (AID 2122); format: functional;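 further: confirmatory high-throughput counterscreen run to flag cytotoxic compounds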
[27] = test system: HEK293; test: cells; format: functional, cell-based; details: Homo sapiens
[28] = HEK-293T viability loss after treatment – luminescence, T-cell screen hits, cytotoxicity control for TCR NF-kB inhibitor project, dose response (AID 489026); format: functional, cell-based;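 further: cells exposed to compound about 14 hours before the viability readout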
[29] = test system: HEK293; test: cells; format: functional, cell-based; details: Homo sapiens; remark: listed apart in the source
[30] = test system: HEK293; test: inhibition of NOD1-driven NF-kB reporter – cell-based, luminescence, uHTS, primary screen (AID 1578); format: functional; details: Homo sapiens
[31] = test system: HEK293; test: NOD2 signaling inhibitors in MDP-stimulated cells, cell-based, uHTS, luminescence (AID 2001); format: functional; details: Homo sapiens
[32] = Luminescence Cell-Based Dose Retest to Confirm Inhibitors of Cancer Stem Cells. [Related pubchem assays (depositor defined):AID2717, AID2721]; format: functional; details: Homo sapiens
[33] = HepG2 cell cytotoxicity, dose response, cytotoxicity control for non-replicating M. tuberculosis project (AID 489018); format: functional; details: Mycobacterium tuberculosis
[34] = cells; format: functional
[35] = target: Paired box protein Pax-8 (Homo sapiens, UniProt Q06710); test: PAX8 transcriptional activity inhibition in RMG-I – RMG-I cells, luciferase, cherry-pick, dose response (AID 687027); format: functional, cell-based;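 further: luciferase reporter driven by Pax8 target thyroperoxidase promoter measured by SteadyGlo luminescence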
[36] = Vero E6 cell cytotoxicity, dose response, cytotoxicity control for non-replicating M. tuberculosis project, secondary assay (AID 492998); format: functional, VeroE6; details: Vero C1008
[37] = THP-1 cell cytotoxicity, dose response, cytotoxicity control for non-replicating M. tuberculosis project (AID 489025); format: functional

Sequence of Glucose-6-phosphate 1-dehydrogenase (P11413 whole entry): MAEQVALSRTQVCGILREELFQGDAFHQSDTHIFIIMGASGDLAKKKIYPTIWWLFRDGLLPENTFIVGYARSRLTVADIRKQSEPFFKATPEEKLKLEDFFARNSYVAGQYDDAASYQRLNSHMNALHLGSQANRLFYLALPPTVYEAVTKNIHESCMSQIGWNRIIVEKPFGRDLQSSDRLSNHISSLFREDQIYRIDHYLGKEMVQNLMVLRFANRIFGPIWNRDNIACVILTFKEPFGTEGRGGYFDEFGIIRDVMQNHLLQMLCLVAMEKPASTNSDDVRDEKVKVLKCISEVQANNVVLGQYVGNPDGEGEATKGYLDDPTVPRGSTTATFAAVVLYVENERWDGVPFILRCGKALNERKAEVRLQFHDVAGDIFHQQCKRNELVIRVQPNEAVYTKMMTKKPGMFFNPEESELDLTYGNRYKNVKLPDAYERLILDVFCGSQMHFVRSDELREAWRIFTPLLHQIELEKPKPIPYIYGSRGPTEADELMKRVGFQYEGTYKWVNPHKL
T1 sequence (P49327 whole entry): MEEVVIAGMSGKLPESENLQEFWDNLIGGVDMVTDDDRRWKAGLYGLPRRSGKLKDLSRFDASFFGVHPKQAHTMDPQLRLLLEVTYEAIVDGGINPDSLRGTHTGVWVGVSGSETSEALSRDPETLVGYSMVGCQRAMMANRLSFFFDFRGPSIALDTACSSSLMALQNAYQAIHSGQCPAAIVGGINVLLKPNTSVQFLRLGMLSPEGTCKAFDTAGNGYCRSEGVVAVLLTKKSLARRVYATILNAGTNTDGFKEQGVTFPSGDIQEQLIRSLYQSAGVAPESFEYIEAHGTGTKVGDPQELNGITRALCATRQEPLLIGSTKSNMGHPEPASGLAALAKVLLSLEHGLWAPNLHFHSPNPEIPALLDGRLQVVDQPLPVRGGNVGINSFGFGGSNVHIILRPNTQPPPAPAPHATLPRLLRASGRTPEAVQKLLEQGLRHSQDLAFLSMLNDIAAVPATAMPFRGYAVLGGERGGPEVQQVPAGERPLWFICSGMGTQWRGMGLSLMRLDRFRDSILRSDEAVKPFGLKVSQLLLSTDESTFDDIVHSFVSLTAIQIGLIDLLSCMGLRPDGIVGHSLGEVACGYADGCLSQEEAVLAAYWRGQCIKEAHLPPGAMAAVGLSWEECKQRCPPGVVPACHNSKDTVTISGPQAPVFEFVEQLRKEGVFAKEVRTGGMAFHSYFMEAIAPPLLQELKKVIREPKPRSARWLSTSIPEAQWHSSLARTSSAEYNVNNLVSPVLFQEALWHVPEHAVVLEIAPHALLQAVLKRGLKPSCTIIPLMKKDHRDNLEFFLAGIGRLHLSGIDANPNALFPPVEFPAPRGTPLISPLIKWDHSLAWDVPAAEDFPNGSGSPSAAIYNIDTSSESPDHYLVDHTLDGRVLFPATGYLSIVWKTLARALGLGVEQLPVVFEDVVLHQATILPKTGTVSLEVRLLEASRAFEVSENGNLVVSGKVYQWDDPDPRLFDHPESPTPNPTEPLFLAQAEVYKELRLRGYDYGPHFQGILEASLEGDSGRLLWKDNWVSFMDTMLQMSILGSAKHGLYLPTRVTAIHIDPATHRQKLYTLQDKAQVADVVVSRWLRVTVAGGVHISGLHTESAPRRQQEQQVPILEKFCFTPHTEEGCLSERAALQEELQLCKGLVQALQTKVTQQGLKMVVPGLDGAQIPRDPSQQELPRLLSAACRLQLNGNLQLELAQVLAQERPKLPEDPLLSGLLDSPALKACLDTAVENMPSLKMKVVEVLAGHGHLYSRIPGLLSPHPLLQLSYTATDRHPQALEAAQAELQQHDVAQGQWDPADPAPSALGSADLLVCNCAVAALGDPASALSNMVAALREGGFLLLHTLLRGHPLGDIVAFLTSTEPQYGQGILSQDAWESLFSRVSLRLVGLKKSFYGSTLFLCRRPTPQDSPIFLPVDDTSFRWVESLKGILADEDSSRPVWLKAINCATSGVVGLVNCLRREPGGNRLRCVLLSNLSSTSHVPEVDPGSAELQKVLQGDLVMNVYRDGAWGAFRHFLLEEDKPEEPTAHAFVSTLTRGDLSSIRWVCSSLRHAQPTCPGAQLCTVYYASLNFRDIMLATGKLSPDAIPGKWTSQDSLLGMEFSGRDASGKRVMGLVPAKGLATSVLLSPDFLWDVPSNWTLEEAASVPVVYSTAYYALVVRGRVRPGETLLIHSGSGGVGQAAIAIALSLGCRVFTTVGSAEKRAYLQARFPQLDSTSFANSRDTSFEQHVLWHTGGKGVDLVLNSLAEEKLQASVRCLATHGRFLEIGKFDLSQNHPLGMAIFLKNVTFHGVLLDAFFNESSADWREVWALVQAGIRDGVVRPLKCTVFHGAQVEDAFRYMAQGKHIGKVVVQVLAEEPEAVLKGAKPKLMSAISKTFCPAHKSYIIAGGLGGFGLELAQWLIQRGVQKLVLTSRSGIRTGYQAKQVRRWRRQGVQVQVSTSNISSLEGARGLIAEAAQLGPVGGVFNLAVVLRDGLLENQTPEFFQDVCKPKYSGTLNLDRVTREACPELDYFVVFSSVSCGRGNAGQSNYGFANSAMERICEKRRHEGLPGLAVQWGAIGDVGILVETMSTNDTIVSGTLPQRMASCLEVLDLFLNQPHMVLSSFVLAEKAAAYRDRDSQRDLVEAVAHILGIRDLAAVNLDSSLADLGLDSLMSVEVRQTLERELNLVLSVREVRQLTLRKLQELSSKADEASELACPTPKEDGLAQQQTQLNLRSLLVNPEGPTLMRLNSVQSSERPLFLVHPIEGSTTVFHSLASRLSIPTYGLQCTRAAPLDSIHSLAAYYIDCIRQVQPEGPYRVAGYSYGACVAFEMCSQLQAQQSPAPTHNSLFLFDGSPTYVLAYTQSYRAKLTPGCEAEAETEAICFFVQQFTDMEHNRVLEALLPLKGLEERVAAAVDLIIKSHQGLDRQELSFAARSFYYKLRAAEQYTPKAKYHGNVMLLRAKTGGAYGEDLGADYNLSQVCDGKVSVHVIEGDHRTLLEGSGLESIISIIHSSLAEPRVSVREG
Sequence of Genome polyprotein (P29990 2492-3391 limits assumed): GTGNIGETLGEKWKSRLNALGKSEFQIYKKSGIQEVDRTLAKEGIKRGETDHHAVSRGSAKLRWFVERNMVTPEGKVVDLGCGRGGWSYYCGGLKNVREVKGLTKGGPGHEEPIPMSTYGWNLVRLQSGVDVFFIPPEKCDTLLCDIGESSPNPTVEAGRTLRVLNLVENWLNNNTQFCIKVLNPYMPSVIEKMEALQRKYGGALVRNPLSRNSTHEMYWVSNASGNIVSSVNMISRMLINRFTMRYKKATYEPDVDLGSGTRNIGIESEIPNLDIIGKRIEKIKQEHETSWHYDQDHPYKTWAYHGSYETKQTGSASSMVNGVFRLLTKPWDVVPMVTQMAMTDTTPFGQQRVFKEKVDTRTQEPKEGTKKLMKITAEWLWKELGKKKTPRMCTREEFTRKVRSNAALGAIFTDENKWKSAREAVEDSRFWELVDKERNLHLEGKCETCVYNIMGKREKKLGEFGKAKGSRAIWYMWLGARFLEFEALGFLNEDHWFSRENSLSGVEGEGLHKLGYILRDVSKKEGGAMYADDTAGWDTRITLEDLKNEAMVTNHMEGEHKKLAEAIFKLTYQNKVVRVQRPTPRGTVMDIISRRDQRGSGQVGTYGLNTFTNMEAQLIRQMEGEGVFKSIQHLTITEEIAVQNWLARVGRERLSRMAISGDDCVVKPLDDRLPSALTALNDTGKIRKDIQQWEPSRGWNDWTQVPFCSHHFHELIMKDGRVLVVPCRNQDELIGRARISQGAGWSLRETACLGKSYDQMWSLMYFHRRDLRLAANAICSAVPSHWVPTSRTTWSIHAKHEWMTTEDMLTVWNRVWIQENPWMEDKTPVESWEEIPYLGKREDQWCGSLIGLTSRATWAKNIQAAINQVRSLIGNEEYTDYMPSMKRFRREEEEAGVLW
Sequence of Beta-galactosidase (Q8VNN2 whole entry): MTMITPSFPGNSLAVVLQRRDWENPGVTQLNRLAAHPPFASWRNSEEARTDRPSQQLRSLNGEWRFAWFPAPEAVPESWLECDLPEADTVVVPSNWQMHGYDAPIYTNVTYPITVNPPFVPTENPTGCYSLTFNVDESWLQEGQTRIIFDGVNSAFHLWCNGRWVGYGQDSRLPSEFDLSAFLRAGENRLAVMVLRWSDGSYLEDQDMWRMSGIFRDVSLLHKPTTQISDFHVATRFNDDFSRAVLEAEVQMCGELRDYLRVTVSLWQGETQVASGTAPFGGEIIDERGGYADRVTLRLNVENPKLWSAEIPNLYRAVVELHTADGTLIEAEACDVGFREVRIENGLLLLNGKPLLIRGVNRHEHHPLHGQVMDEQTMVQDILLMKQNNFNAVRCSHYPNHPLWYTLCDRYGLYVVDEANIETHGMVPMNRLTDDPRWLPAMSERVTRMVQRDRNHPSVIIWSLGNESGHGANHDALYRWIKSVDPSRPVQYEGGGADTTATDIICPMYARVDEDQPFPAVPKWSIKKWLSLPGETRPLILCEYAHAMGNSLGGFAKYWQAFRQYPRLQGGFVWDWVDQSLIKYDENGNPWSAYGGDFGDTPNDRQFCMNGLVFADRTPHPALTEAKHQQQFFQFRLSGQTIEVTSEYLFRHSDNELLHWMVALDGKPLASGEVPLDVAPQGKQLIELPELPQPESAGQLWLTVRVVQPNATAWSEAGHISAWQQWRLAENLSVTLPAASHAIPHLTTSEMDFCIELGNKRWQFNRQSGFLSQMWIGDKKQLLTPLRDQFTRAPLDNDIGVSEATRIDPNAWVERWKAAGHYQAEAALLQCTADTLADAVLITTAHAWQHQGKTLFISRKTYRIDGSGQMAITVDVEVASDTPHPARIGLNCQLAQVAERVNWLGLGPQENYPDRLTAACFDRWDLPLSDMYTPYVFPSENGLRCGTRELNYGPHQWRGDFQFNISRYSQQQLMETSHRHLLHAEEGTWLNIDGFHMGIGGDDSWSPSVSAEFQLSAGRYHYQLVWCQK

CC(=O)OCCCNc1cc(Sc2nc3ccccc3s2)c2nonc2c1[N+](=O)[O-]
inactive: IC50 [11] > 80 µM | EC50 [15] > 40 µM
> 150 µM (not active): EC50 [7]
active: IC50 [1] 2.08 µM | EC50 [2] 3.7 µM | AC50 [3] 24.4 µM | EC50 [4] 4.76 µM | AC50 [5] 4.7 µM | EC50 [6] 3.26 µM | IC50 [8] 1.35 µM | IC50 [9] 2.06 µM | IC50 [10] > 100 µM | EC50 [12] 1.38 µM | CC50 [13] 16.8 µM | AC50 [14] 11.3 µM

CN(C)c1ccc(C(=O)N/N=C/C23CC[C@@H](O)CC2(O)CC[C@@H]2[C@@H]3CCC3(C)C(C4=CC(=O)OC4)CCC23O)cc1 (stereo partly specified)
active: EC50 [16] 3.63 µM | CC50 [17] 22 µM | IC50 [19] > 25 µM | EC50 [20] 14.2 µM | EC50 [21] 19 µM | CC50 [23] 17.9 µM | EC50 [24] 3.56 µM
inactive: IC50 [18] > 47.1 µM | EC50 [22] > 53 µM

CCOC(=O)N1CCC(N(C(=O)Nc2ccc(Cl)c(Cl)c2)C(C)CC)CC1 (stereo unspecified)
active: IC50 [25] 2.7 µM | IC50 [26] 2.45 µM

CC(C)(C)c1ccc(C(=O)NC(=S)Nc2sc3c(c2C#N)CCC3)cc1
active: IC50 [19] > 25 µM

O=C(Nc1ccc(Cc2ccncc2)cc1)c1ccc(S(=O)(=O)N2CCCC2)cc1
active: IC50 [27] 13.6 µM | IC50 [29] 4.59 µM | EC50 [30] 2.66 µM | IC50 [31] 5.81 µM
inactive: IC50 [28] 33.4 µM

CCOc1ccccc1C=NNC(=O)CCCCC(=O)NN=Cc1ccccc1OCC
inactive: IC50 [11] > 80 µM

CC(=O)[C@@]1(O)C(C)CC2C3C=C(C)C4=Cc5c(cnn5-c5ccccc5)C[C@]4(C)C3C(O)C[C@@]21C (stereo partly specified)
inactive: IC50 [26] > 16 µM
> 150 µM (not active): EC50 [2]
active: IC50 [25] < 0.25 µM | AC50 [32] 1.15 µM | EC50 [6] 5.57 µM | EC50 [7] 2.97 µM | CC50 [23] > 100 µM

O=C(NC12CC3CC(CC(C3)C1)C2)c1ccc([N+](=O)[O-])o1
active: CC50 [33] 10.4 µM | EC50 [2] 7.69 µM | AC50 [32] 5.23 µM | EC50 [6] 1.2 µM | IC50 [34] 7.14 µM | AC50 [35] 4.39 µM | CC50 [36] 14.6 µM | CC50 [37] 12.4 µM
> 150 µM (not active): EC50 [7]

CC(C)(C)c1ccc(CN(Cc2ccccc2)C(c2ccccn2)c2nnnn2C(C)(C)C)cc1 (stereo unspecified)
active: IC50 [25] 3.07 µM | AC50 [3] 67.9 µM | AC50 [5] 13.5 µM | EC50 [12] 1.76 µM | AC50 [14] 24.2 µM | IC50 [26] 3.84 µM
> 60 µM (not active): EC50 [4]
